Data set [1] concerns the target T1, ferrous heme-hHO-1 (Homo sapiens, UniProt P09601).
T1 sequence (P09601 1-265 limits assumed): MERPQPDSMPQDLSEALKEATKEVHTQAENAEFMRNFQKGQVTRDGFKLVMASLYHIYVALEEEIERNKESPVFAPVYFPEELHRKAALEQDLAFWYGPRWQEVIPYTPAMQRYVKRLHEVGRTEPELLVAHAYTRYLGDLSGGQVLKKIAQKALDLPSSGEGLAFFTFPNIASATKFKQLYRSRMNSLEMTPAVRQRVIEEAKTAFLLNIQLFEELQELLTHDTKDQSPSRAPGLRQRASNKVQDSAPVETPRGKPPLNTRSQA
The note with it: cited from earlier work.

Data set [2] concerns the target HO. The conditions noted are these: cited from earlier work.
Another data set has as its target T2, hHO-1 (Homo sapiens, UniProt P09601).
T2 sequence (P09601 1-265 limits assumed): T1 sequence (P09601 1-265 limits assumed)
Briefly: biochemical.

The target of a further data set is T3, ferric verdoheme-hHO-1 (Homo sapiens, UniProt P09601).
T3 sequence (P09601 1-265 limits assumed): T1 sequence (P09601 1-265 limits assumed)
Description: biochemical. In kind it is binding.

The target of data set [3] is T4, heme-hHO-1 (Homo sapiens, UniProt P09601).
T4 sequence (P09601 1-265 limits assumed): T1 sequence (P09601 1-265 limits assumed)
Briefly: biochemical.

Data set [4] deals with T1, ferrous heme-hHO-1. Description: biochemical. It counts as binding.
Data set [5] addresses T4, heme-hHO-1. It counts as binding. The note with it: ferric heme-hHO-1.
Data set [6] in a line: Solubility in aqueous solutions. It counts as physicochemical.
The target of the next data set is T5, hHO-2 (Homo sapiens, UniProt P30519).
T5 sequence (P30519 2-295 limits assumed): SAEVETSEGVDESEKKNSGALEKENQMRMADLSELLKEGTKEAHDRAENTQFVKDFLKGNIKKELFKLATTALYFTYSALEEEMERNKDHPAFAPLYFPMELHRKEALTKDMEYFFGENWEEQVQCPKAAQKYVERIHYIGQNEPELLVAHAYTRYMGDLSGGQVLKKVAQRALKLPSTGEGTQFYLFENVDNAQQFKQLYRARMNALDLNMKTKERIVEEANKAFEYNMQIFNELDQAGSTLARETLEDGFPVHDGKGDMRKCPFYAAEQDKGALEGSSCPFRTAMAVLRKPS
Description: biochemical.

A further data set addresses CaHmx1 (Candida albicans, UniProt Q5AB97). It counts as binding. The note with it: read-out: estimate of the KD; ferric CaHmx1; no full saturation up to 7 mM.
For a further data set, the system named is verdoheme-HO-1 complex. The conditions noted are these: in the presence of reductant; cited from earlier work.
The target of data set [7] is HO. The conditions noted are these: cited from earlier work. The source holds these as a separate data set.

Converted amounts (≈) assume the structure as drawn. Like-named read-outs stand apart in the source and are kept apart here.

The values below come from article PMC2857669 (Biochemistry, 2009).

One may read the Kd as the concentration at which binding is half-saturated. What is called Km is the concentration of substrate that gives half-maximal velocity. As a reminder, the IC50 is the concentration at which inhibition is half-maximal. Higher therefore signals weaker potency. One may read the koff as a measure of how fast the partners let go of each other. Usually solubility stands for how much of the substance goes into solution per volume. High values mean a readily soluble substance, low ones a poorly soluble substance. In general, Ki refers to the dissociation constant of the complex between target and ligand, obtained from inhibition or displacement.

On to `[C-]#[O+]` [CO, carbon monoxide], for which, on ferrous heme-hHO-1 [1], the Kd is 0.01 µM, the association rate constant is 900000 M⁻¹ s⁻¹ and the dissociation rate is 0.009 s⁻¹.
Regarding iron protoporphyrin IX [heme], the Kd at HO [2] is 0.8 ± 0.2 µM. The Km at hHO-1 (read-out: Km for heme, global fit to uncompetitive inhibition) was 0.005 ± 0.001 mM.
As for `[C-]#[N+]CCCC` [n-butyl isocyanide], the Kd amounted to 17 ± 3 µM on ferric verdoheme-hHO-1 and 0.12 µM at ferrous heme-hHO-1 [4]. Moreover, the “fold higher affinity than ferric heme-hHO-1” value at ferric verdoheme-hHO-1 (ferric verdoheme-hHO-1 versus ferric heme-hHO-1) was determined as 2 fold. The results for the IC50 against heme-hHO-1 [3], on hHO-1 and on hHO-2 were around 45 µM, 0.25 ± 0.01 µM and 0.34 ± 0.02 µM, respectively. In addition, the koff on ferrous heme-hHO-1 [4] (read-out: dissociation rate (koff)) amounted to 0.52 s⁻¹. In addition, the “fold higher affinity than isopropyl isocyanide” value at heme-hHO-1 [5] turned out to be 9 fold. The amount in solution in data set [6] (solubility) came to 6 mM (≈ 499 µg/mL).
On to `[C-]#[N+]C(C)C` [isopropyl isocyanide], for which the Kd was 440 ± 75 µM on ferric verdoheme-hHO-1 (ferric verdoheme-hHO-1 generated with one equivalent H2O2) and 3800 µM at CaHmx1. Moreover, on ferrous heme-hHO-1 [4] (ferrous heme-hHO-1, 20 °C, anaerobic), the “association rate constant (kon)” value was 1.3e+06 M⁻¹ s⁻¹. In addition, the half-maximal inhibitory concentration (IC50) turned out to be 0.72 ± 0.08 µM at hHO-1 and 1.17 ± 0.06 µM at hHO-2.
In the case of `O=O` [O2], in the data set on verdoheme-HO-1 complex, the “estimated rate constant of reaction with O2” value is 250 M⁻¹ s⁻¹. Also, on ferrous heme-hHO-1 [1], the Kd is 0.04 µM, the association rate constant is 6.9e+06 M⁻¹ s⁻¹ and the dissociation rate is 0.25 s⁻¹.
Regarding `C=Cc1c2[n-]c(c1C)/C=c1\[n-]/c(c(C)c1C=C)=C\c1[n-]c(c(CCC(=O)O)c1C)C=c1[n-]/c(c(C)c1CCC(=O)O)=C\2.[Sn+4]` [Sn-heme], on HO [7], the Ki is 0.011 µM.
